Test results: US10253085B2, “CD31 peptides for the treatment of thrombotic or autoimmune disorders” (INSERM (INSTITUT NATIONAL DE LA SANTE ET DE LA RECHERCHE …, priority 2008, dated 2019)
Entries after “also recorded” stand apart in the source; their conditions may differ.

Tests used:
T-cell activation = test: In vitro inhibition of T-cell activation (summary statements); assay type: cell-based
[1] = test system: BALB/c mice primed with TNCB; test: Delayed type hypersensitivity (DTH) suppression model; assay type: in vivo, mouse; conditions: single subcutaneous administration; peptide 10, 50, 100 μM; scramble 100 μM
Description: Delayed type hypersensitivity (DTH) suppression was evaluated as described in the “Current Protocols in Immunology (2001) 4.0.1-4.0.2 Unit 4.2”. Briefly, TNCB (2-chloro-1,3,5-trinitrobenzene, Fluka #79874) was dissolved in acetone/olive oil (1:1 v/v) at a concentration of 10 mg/ml. BALB/c mice (n=6/group) were primed by painting the shaved regions of the abdomen a with a total 0.2 ml of the preparation (n=6/group). The experiment included 3 groups for peptide 551-574 (10, 50, 100 μM) and 1 group treated with scramble peptide at 100 μM). Five days after priming, 10 μl of the TNCB-solvent mixture was painted on the right pinna, 30 minutes after subcutaneous (interscapolar) administration of the peptide 551-574 or the scramble peptide. Ear thickness increases were calculated by subtracting the thickness of the right and the left pinna of each mouse (right-left/left×100), measured at 24 h with a dial caliper (“Pocotest”, Kroeplin Längenmesstechnick). The measure was performed 5 times on each ear and averaged for further analysis. The immunosuppressive effect of the peptide was calculated as % suppression=(1−ΔTE/ΔTS)×100, where ΔT=(ear thickness 24 hr after elicitation)−(baseline ear thickness), […]. Data are expressed as mean±SEM.

[2] = test system: spleen cells from C57Bl/6 (CD31^+/+) mice; test: Proliferation in response to TCR stimulation, CD31+/+ spleen cells; assay type: cell-based, mouse; conditions: peptide 25, 50, 100 μM; scramble peptide 100 μM
Description: CD8^+ T cell-mediated cytolytic activity against allogeneic mouse aortic smooth muscle cells and measurement of macrophage gelatinase (MMP-2/9) activity were performed as previously described for human cells in Caligiuri et al. (2006 Arterioscler Thromb Vasc Biol 26:618-623) using kits and reagents from Invitrogen. Briefly, primary cultures of FVB/N mouse aorta smooth muscle cells were labelled with the lipophylic tracer DIO (green) and co-cultured for 3 hours with CD8+ T cell-enriched spleen cells from C57Bl/6 mice (n=3 scramble peptide and n=3 peptide 551-574, 50 μM). Cytolysis was evaluated by intracellular accumulation of propidium iodide (PI). Cells were analysed by flow cytometry and the % of cytolysis was calculated by expressing the number of dead (PI+) cells among the target (DIO+) cells. Intracellular MMP-2/9 (gelatinase) activity was measured by flow cytometry in 7-day bone-marrow derived macrophages from C57Bl/6 mice (n=3 scramble peptide and n=3 peptide 551-574, 50 μM) three hours after the incorporation of OregonGreen® gelatine (MFI). T-cell proliferation was performed using either human peripheral blood mononuclear cells of spleen cells from C57Bl/6 (CD31^+/+) and CD31^−/− mice (Charles River France) as previously described (Caligiuri et al. 2005 Arterioscler Thromb Vasc Biol 25:1659-1664). Briefly, cells were plated in triplicates at 0.2×10^6 cells/well in a U bottom 96-well plate in complete medium (RPMI 1640, 1% pyruvate, 1% glutamine, 1% penicillin-streptomicyne-fungizone, 10% decomplemented fetal calf serum, all from Invitrogen) containing 1 μg/ml anti-mouse CD3/CD28 or 5 μg/ml anti-human CD3 antibodies (BD) as appropriate. CD31 (551-574) and scramble peptide at 25, 50 and 100 μM final concentration were deposited in the wells just before cell plating. Plated cells were cultured for 72 hours in 5% CO2 at 37° C. (^3H) thymidine (0.5 μCi/well) was added for the last 16 hours and proliferation evaluated using a Tomtec harvester and analysis on a Wallac micro beta counter. Data are expressed as mean±SEM of cpm in triplicates.

T cell proliferation = test: Suppression of T cell proliferation by [H3] thymidin incorporation, long culture; assay type: cell-based, mouse; conditions: culture at 37° C. in 10% serum
[3] = test system: CD4+ cells from C57Bl6 mice; test: CD4+ T cell activation, early activation marker CD69 by flow cytometry; assay type: cell-based, mouse; conditions: 18 hours culture
Description: Alternatively, the T-cell proliferation assay may comprise comparing expression levels of the early activation marker CD69 in T-cells cultured either in the presence or in the absence of the compound to be tested. This assay may for example be performed as follows: • providing purified CD4+ cells (e.g. purified from C57B16 mice); • stimulating said CD4+ cells by addition of anti-CD3 purified antibodies and bone marrow derived dendritic cells; • culturing the cells for about 18 hours; and • analyzing said cells for the expression of the early activation marker CD69, e.g. by flow cytometry; and • comparing CD69 expression in the presence of the compound to be tested.
The immunosuppressive properties of PepReg (10aa) vs the 23 aa parent peptide were evaluated in vitro. Negatively purified CD4+ cells from C57Bl6 mice were stimulated by soluble anti-CD3 purified antibodies and bone marrow derived dendritic cells. Cells from triplicate wells were analyzed for the expression of the early activation marker CD69 after 18 hours culture in complete RPMI medium supplemented with 10% fetal calf serum.

[4] = test system: C57BL/6J mice immunized with MOG35-55 peptide; test: Experimental Autoimmune Encephalomyelitis (EAE) model; assay type: in vivo, mouse
Description: Twelve-week old female C57BL/6J mice were immunized with 300 μg of MOG35-55 peptide emulsified in Complete Freund's Adjuvant 1:1 by volume containing 800 μg of nonviable desiccated Mycobacterium tuberculosis H37RA. A final volume of 200 μl of the emulsion was injected subcutaneously at 4 sites (50 μl/site) over the flanks. In addition, 300 ng of Pertussis toxin was injected intravenously (retro-orbital plexus) on the same day and 2 days later. Clinical signs of EAE ware assessed daily by the following scoring system: 0, no signs; 1, hindlimb weakness; 2, hindlimb weakness and tail paralysis; 3, hindlimb and tail paralysis; 4, hindlimb and tail paralysis and forelimb weakness; 5, moribund state; and 6, death. The peak (waxing phase) occured around day 21. In this C57BL/6J mouse model, there was no waning phase as assessed in our laboratory up to day 41.
The experiment was carried out with ten mice per group. The mice of each group were treating with either of: • PBS; • PepReg (SEQ ID NO: 3); or • PepScra (SEQ ID NO: 14).
The dosing was of 50 μg of peptide per mice and per day (i.e. about 2 mg/Kg per day). The peptide was administered by a subcutaneous injection.

[5] = associated with disease protection

For “LAPWKK (mouse or human-derived CD31 peptide) [SEQ ID NO: 2]”, which “inhibition of T-cell activation” value (T-cell activation) is on record?
Its value is “capable of inhibiting T-cell activation”.

With “NH2 - SMPAVRSRFSATSLVTLKSRWPK -COOH (H-SMPAVRSRFSATSLVTLKSRWPK-OH) [scramble peptide, scramble peptide used as control for the 23-mer, reference compound]” as the substance, how does the “suppression of distal recall of a hapten-elicited specific immune response (ear thickness)” value [1] read?
Its value is “ineffective”.

And the “proliferation of CD31+/+ spleen cells in response to TCR stimulation” value [2]?
The value was “No effect; also recorded: ineffective”.

With “VRVFLAPWKK (mouse-derived CD31 peptide) [PepReg, ten COOH terminal amino acids of mouse CD31 peptide]” as the substance, how does the “inhibition of T-cell activation” value (T-cell activation) read?
Its value is “capable of inhibiting T-cell activation”.

And the “persistence of suppression of T cell proliferation” value (T cell proliferation)?
The value was “up to 7 days”.

And the “dose at which suppression of CD69 expression was observed” value [3]?
The value was 50 µg/mL.

And the “suppression of T cell activation (percentage of CD4 cells expressing CD69)” value ([3]; anti-CD3 and dendritic cells)?
Its value is “at least as efficient as the 23aa peptide”.

And the “infiltration of IL17+ and IFNg+ T helper CD4+ cells in the central nervous system” value [4, 5]?
The value was “reduced infiltration”.

And the “proportion of regulatory CD25+/foxP3 CD4+ cells in the central nervous system” value [4, 5]?
The value was “increased proportion”.

What about the “clinical score of EAE activity (paralysis level)” value ([4]; plateau phase (Days 21 through to 35), 50 μg per mice per day subcutaneous) of the same substance?
Its value is “reducing disease extension”.

What about the “clinical score of EAE activity (paralysis level)” value ([4]; waxing phase (Day 15), 50 μg per mice per day subcutaneous) of the same substance?
Its value is “arresting disease development”.

For “scrambled peptide: scramble peptide of SEQ ID NO: 14 used as control for PepReg; sequence not printed (WPKLRKFVAV; scramble peptide) [reference compound]”, which “beneficial effect in EAE model” value ([4]; 50 μg per mice per day subcutaneous) is on record?
Its value is “beneficial, although less than PepReg”.
